Values of other authors, collected in patent publication US8563723B2, “Arylsulfonyl pyrazoline carboxamidine derivatives as 5-HT6 antagonists” (Abbott Healthcare Products, B.V., priority 2008, dated 2013).

Settings: Rogers, 1999; cited from earlier work

COc1ccc(NS(=O)(=O)c2sc3ccc(Cl)cc3c2C)cc1N1CCNCC1 [SB-271046]
performance in the Morris water maze: improved performance
